# From patent publication US20260265252A1, “SOLID STATE FORMS OF IMIPRIDONE DERIVATIVE” (CHIMERIX, INC., priority 2024, published 2026)
# Structures can show the parent of a compound that is named as a salt.
# Test: ICH-compliant stability study of ONC206-HCl Drug Substance (appearance, XRPD form, HPLC assay, purity/impurities, water content, particle size, microbial)
# Type: physicochemical
# Parameters: key to Each unidentified impurity (NMT 0.5% area) / Appearance (White to off-white solid) / Polymorphic form (XRPD) (Consistent with form 2 reference diffractogram): C = Conforms; A = Absence
# Method: The purpose of the ICH-compliant stability study was to evaluate the performance to specifications of ONC206-HCl Drug Substance under specified container closure configuration, storage conditions, and intervals.
# The study was performed according to ICH Q1A(R2) and QlE Guidance documents. […]
# The Container Closure Systems were: • Primary container: LDPE bag, 4×8 inches (Source: Nexus—64378); bag closure PE 180 nm (Source: Entourage), • Secondary container: LDPE bag, 4×8 inches (Source: Nexus—64378); bag closure PE 180 nm (Source: Entourage), • Tertiary container: Heat-sealed foil bag, 15×30 (Source: SERCALIA S.L.—10234), and • Outer container: Plastic drum, 6 L (Source: Curtec, HDPE ref 54021) or Plastic drum, 3.6 L (Source: Curtec).
# [1] = 25 ± 2° C./60% ± 5% RH long term storage conditions, 0 months
# [2] = 25 ± 2° C./60% ± 5% RH long term storage conditions, 3 months
# [3] = 25 ± 2° C./60% ± 5% RH long term storage conditions, 6 months
# [4] = 25 ± 2° C./60% ± 5% RH long term storage conditions, 9 months
# [5] = 25 ± 2° C./60% ± 5% RH long term storage conditions, 12 months
# [6] = 30 ± 2° C./65% ± 5% RH intermediate conditions, 0 months
# [7] = 30 ± 2° C./65% ± 5% RH intermediate conditions, 6 months
# [8] = 30 ± 2° C./65% ± 5% RH intermediate conditions, 9 months
structure (smiles),measurement,setting,value
"O=C1C2=C(CCN(Cc3ccccc3)C2)N2CCN=C2N1Cc1ccc(F)cc1F [ONC206-HCl, 7-benzyl-4-(2,4-difluorobenzyl)-2,4,6,7,8,9-hexahydroimidazo[1,2-a]pyrido[3,4-e]pyrimidin-5(1H)-one]",period over which stability is confirmed,2-8° C. (Table 39),6 months
same,Appearance (White to off-white solid),"2-8° C., 0 months",C
same,Assay by HPLC-UV (Anhydrous & Solvent Free basis) 97.0-103.0% w/w,"2-8° C., 0 months",101.6 % w/w
same,Each unidentified impurity (NMT 0.5% area),"2-8° C., 0 months",C
same,Particle Size (Malvern) D10 (Report result μm),"2-8° C., 0 months",28.2 μm
same,Particle Size (Malvern) D50 (Report result μm),"2-8° C., 0 months",91.4 μm
same,Particle Size (Malvern) D90 (Report result μm),"2-8° C., 0 months",201.3 μm
same,Polymorphic form (XRPD) (Consistent with form 2 reference diffractogram),"2-8° C., 0 months",C
same,Purity by HPLC (NLT 98.0% area),"2-8° C., 0 months",100.0 % area
same,Total impurities (NMT 2.0% area),"2-8° C., 0 months",0.00 % area
same,Water Content by Kf (Report result % w/w),"2-8° C., 0 months",9.3 % w/w
same,Appearance (White to off-white solid),"2-8° C., 1 months",C
same,Assay by HPLC-UV (Anhydrous & Solvent Free basis) 97.0-103.0% w/w,"2-8° C., 1 months",101.3 % w/w
same,Each unidentified impurity (NMT 0.5% area),"2-8° C., 1 months",C
same,Particle Size (Malvern) D10 (Report result μm),"2-8° C., 1 months",27.8 μm
same,Particle Size (Malvern) D50 (Report result μm),"2-8° C., 1 months",89.8 μm
same,Particle Size (Malvern) D90 (Report result μm),"2-8° C., 1 months",196.0 μm
same,Polymorphic form (XRPD) (Consistent with form 2 reference diffractogram),"2-8° C., 1 months",C
same,Purity by HPLC (NLT 98.0% area),"2-8° C., 1 months",100.0 % area
same,Total impurities (NMT 2.0% area),"2-8° C., 1 months",0.00 % area
same,Water Content by Kf (Report result % w/w),"2-8° C., 1 months",9.2 % w/w
same,Appearance (White to off-white solid),"2-8° C., 2 months",C
same,Assay by HPLC-UV (Anhydrous & Solvent Free basis) 97.0-103.0% w/w,"2-8° C., 2 months",100.3 % w/w
same,Each unidentified impurity (NMT 0.5% area),"2-8° C., 2 months",C
same,Particle Size (Malvern) D10 (Report result μm),"2-8° C., 2 months",29.4 μm
same,Particle Size (Malvern) D50 (Report result μm),"2-8° C., 2 months",91.6 μm
same,Particle Size (Malvern) D90 (Report result μm),"2-8° C., 2 months",189.0 μm
same,Polymorphic form (XRPD) (Consistent with form 2 reference diffractogram),"2-8° C., 2 months",C
same,Purity by HPLC (NLT 98.0% area),"2-8° C., 2 months",100.0 % area
same,Total impurities (NMT 2.0% area),"2-8° C., 2 months",0.00 % area
same,Water Content by Kf (Report result % w/w),"2-8° C., 2 months",9.4 % w/w
same,Appearance (White to off-white solid),"2-8° C., 3 months",C
same,Assay by HPLC-UV (Anhydrous & Solvent Free basis) 97.0-103.0% w/w,"2-8° C., 3 months",100.3 % w/w
same,Each unidentified impurity (NMT 0.5% area),"2-8° C., 3 months",C
same,Particle Size (Malvern) D10 (Report result μm),"2-8° C., 3 months",28.3 μm
same,Particle Size (Malvern) D50 (Report result μm),"2-8° C., 3 months",90.9 μm
same,Particle Size (Malvern) D90 (Report result μm),"2-8° C., 3 months",197.0 μm
same,Polymorphic form (XRPD) (Consistent with form 2 reference diffractogram),"2-8° C., 3 months",C
same,Purity by HPLC (NLT 98.0% area),"2-8° C., 3 months",100.0 % area
same,Total impurities (NMT 2.0% area),"2-8° C., 3 months",0.00 % area
same,Water Content by Kf (Report result % w/w),"2-8° C., 3 months",9.5 % w/w
same,Appearance (White to off-white solid),"2-8° C., 6 months",C
same,Assay by HPLC-UV (Anhydrous & Solvent Free basis) 97.0-103.0% w/w,"2-8° C., 6 months",99.6 % w/w
same,Each unidentified impurity (NMT 0.5% area),"2-8° C., 6 months",C
same,Particle Size (Malvern) D10 (Report result μm),"2-8° C., 6 months",28.3 μm
same,Particle Size (Malvern) D50 (Report result μm),"2-8° C., 6 months",91.1 μm
same,Particle Size (Malvern) D90 (Report result μm),"2-8° C., 6 months",199.0 μm
same,Polymorphic form (XRPD) (Consistent with form 2 reference diffractogram),"2-8° C., 6 months",C
same,Purity by HPLC (NLT 98.0% area),"2-8° C., 6 months",100.0 % area
same,Total impurities (NMT 2.0% area),"2-8° C., 6 months",0.00 % area
same,Water Content by Kf (Report result % w/w),"2-8° C., 6 months",9.3 % w/w
same,period over which stability is confirmed,"25° C. (Table 42), 60% RH long term storage conditions",12 months
same,Appearance (White to off-white solid),[1],C
same,Assay by HPLC-UV (Anhydrous & Solvent Free basis) 97.0-103.0% w/w,[1],101.6 % w/w
same,Each unidentified impurity (NMT 0.5% area),[1],C
same,Particle Size (Malvern) D10 (Report result μm),[1],28.2 μm
same,Particle Size (Malvern) D50 (Report result μm),[1],91.4 μm
same,Particle Size (Malvern) D90 (Report result μm),[1],201.3 μm
same,Polymorphic form (XRPD) (Consistent with form 2 reference diffractogram),[1],C
same,Purity by HPLC (NLT 98.0% area),[1],100.0 % area
same,Total impurities (NMT 2.0% area),[1],0.00 % area
same,Water Content by Kf (Report result % w/w),[1],9.3 % w/w
same,Appearance (White to off-white solid),[2],C
same,Assay by HPLC-UV (Anhydrous & Solvent Free basis) 97.0-103.0% w/w,[2],99.1 % w/w
same,Each unidentified impurity (NMT 0.5% area),[2],C
same,Particle Size (Malvern) D10 (Report result μm),[2],28.3 μm
same,Particle Size (Malvern) D50 (Report result μm),[2],91.4 μm
same,Particle Size (Malvern) D90 (Report result μm),[2],199.0 μm
same,Polymorphic form (XRPD) (Consistent with form 2 reference diffractogram),[2],C
same,Purity by HPLC (NLT 98.0% area),[2],100.0 % area
same,Total impurities (NMT 2.0% area),[2],0.00 % area
same,Water Content by Kf (Report result % w/w),[2],9.5 % w/w
same,Appearance (White to off-white solid),[3],C
same,Assay by HPLC-UV (Anhydrous & Solvent Free basis) 97.0-103.0% w/w,[3],100.2 % w/w
same,Each unidentified impurity (NMT 0.5% area),[3],C
same,Particle Size (Malvern) D10 (Report result μm),[3],26.8 μm
same,Particle Size (Malvern) D50 (Report result μm),[3],88.5 μm
same,Particle Size (Malvern) D90 (Report result μm),[3],196.0 μm
same,Polymorphic form (XRPD) (Consistent with form 2 reference diffractogram),[3],C
same,Purity by HPLC (NLT 98.0% area),[3],100.0 % area
same,Total impurities (NMT 2.0% area),[3],0.00 % area
same,Water Content by Kf (Report result % w/w),[3],9.3 % w/w
same,Appearance (White to off-white solid),[4],C
same,Assay by HPLC-UV (Anhydrous & Solvent Free basis) 97.0-103.0% w/w,[4],100.4 % w/w
same,Each unidentified impurity (NMT 0.5% area),[4],C
same,Particle Size (Malvern) D10 (Report result μm),[4],30.2 μm
same,Particle Size (Malvern) D50 (Report result μm),[4],92.2 μm
same,Particle Size (Malvern) D90 (Report result μm),[4],192.0 μm
same,Polymorphic form (XRPD) (Consistent with form 2 reference diffractogram),[4],C
same,Purity by HPLC (NLT 98.0% area),[4],100.0 % area
same,Total impurities (NMT 2.0% area),[4],0.00 % area
same,Water Content by Kf (Report result % w/w),[4],9.3 % w/w
same,Appearance (White to off-white solid),[5],C
same,Assay by HPLC-UV (Anhydrous & Solvent Free basis) 97.0-103.0% w/w,[5],99.6 % w/w
same,Each unidentified impurity (NMT 0.5% area),[5],C
same,Particle Size (Malvern) D10 (Report result μm),[5],28.1 μm
same,Particle Size (Malvern) D50 (Report result μm),[5],91.3 μm
same,Particle Size (Malvern) D90 (Report result μm),[5],203.0 μm
same,Polymorphic form (XRPD) (Consistent with form 2 reference diffractogram),[5],C
same,Purity by HPLC (NLT 98.0% area),[5],100.0 % area
same,Total impurities (NMT 2.0% area),[5],0.00 % area
same,Water Content by Kf (Report result % w/w),[5],9.3 % w/w
same,period over which stability is confirmed,"30° C. (Table 43), 65% RH intermediate conditions",12 months
same,Appearance (White to off-white solid),[6],C
same,Assay by HPLC-UV (Anhydrous & Solvent Free basis) 97.0-103.0% w/w,[6],101.6 % w/w
same,Each unidentified impurity (NMT 0.5% area),[6],C
same,Particle Size (Malvern) D10 (Report result μm),[6],28.2 μm
same,Particle Size (Malvern) D50 (Report result μm),[6],91.4 μm
same,Particle Size (Malvern) D90 (Report result μm),[6],201.3 μm
same,Polymorphic form (XRPD) (Consistent with form 2 reference diffractogram),[6],C
same,Purity by HPLC (NLT 98.0% area),[6],100.0 % area
same,Total impurities (NMT 2.0% area),[6],0.00 % area
same,Water Content by Kf (Report result % w/w),[6],9.3 % w/w
same,Appearance (White to off-white solid),[7],C
same,Assay by HPLC-UV (Anhydrous & Solvent Free basis) 97.0-103.0% w/w,[7],99.2 % w/w
same,Each unidentified impurity (NMT 0.5% area),[7],C
same,Particle Size (Malvern) D10 (Report result μm),[7],29.3 μm
same,Particle Size (Malvern) D50 (Report result μm),[7],92.1 μm
same,Particle Size (Malvern) D90 (Report result μm),[7],199.0 μm
same,Polymorphic form (XRPD) (Consistent with form 2 reference diffractogram),[7],C
same,Purity by HPLC (NLT 98.0% area),[7],100.0 % area
same,Total impurities (NMT 2.0% area),[7],0.00 % area
same,Water Content by Kf (Report result % w/w),[7],9.3 % w/w
same,Appearance (White to off-white solid),[8],C
same,Assay by HPLC-UV (Anhydrous & Solvent Free basis) 97.0-103.0% w/w,[8],100.2 % w/w
same,Each unidentified impurity (NMT 0.5% area),[8],C
